Experimental data taken from PubChem BioAssay (NCI).
Values joined by “and” are separate entries in the source; they are usually repeats but may differ in a detail not shown here. Identical values can stand only once.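 Test compounds were applied to cells in 96-well plates for 48 hours at 5 doses. At the GI50, growth is halved. The concentration for full growth arrest is given as TGI.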

Columns and labels:
Test in all cases: NCI tumour cell line growth inhibition, 48 h
A498 renal = tested on: A498 renal
A549 NSCLC = tested on: A549 NSCLC
HL-60(TB) leukemia = tested on: HL-60(TB) leukemia
MDA-MB-435 = tested on: MDA-MB-435
NCI-H460 lung = tested on: NCI-H460 lung
OVCAR-3 ovarian = tested on: OVCAR-3 ovarian
OVCAR-5 ovarian = tested on: OVCAR-5 ovarian
SK-OV-3 ovarian = tested on: SK-OV-3 ovarian
T-47D breast = tested on: T-47D breast
UACC-62 melanoma = tested on: UACC-62 melanoma

Compound | GI50 (A498 renal) | TGI (A498 renal) | GI50 (A549 NSCLC) | TGI (A549 NSCLC) | GI50 (HL-60(TB) leukemia) | TGI (HL-60(TB) leukemia) | GI50 (MDA-MB-435) | TGI (MDA-MB-435) | GI50 (NCI-H460 lung) | TGI (NCI-H460 lung) | GI50 (OVCAR-3 ovarian) | TGI (OVCAR-3 ovarian) | GI50 (OVCAR-5 ovarian) | TGI (OVCAR-5 ovarian) | GI50 (SK-OV-3 ovarian) | TGI (SK-OV-3 ovarian) | GI50 (T-47D breast) | TGI (T-47D breast) | GI50 (UACC-62 melanoma) | TGI (UACC-62 melanoma)
O=S(=O)(c1ccc2c(c1)C(=NO)c1cc(S(=O)(=O)N3CCCCC3)ccc1-2)N1CCCCC1 | > 1 µM and 8.88 µM | > 1 µM and 37.5 µM | > 1 µM and 0.187 µM | > 1 µM and 0.371 µM | 0.107 µM and 0.189 µM | 0.326 µM and 0.549 µM | 0.173 µM and 0.102 µM | 0.317 µM and 0.244 µM | 0.214 µM and 0.106 µM | 0.465 µM and 0.268 µM | 0.87 µM and 0.177 µM | > 1 µM and 0.321 µM | 0.153 µM and 0.151 µM | 0.315 µM and 0.293 µM | 0.187 µM and 0.162 µM | 0.362 µM and 0.311 µM | 0.186 µM and 0.18 µM | 0.423 µM and 0.384 µM | 0.227 µM and 0.174 µM | 0.612 µM and 0.329 µM
COC(=O)C1=C(C(=O)Nc2cccnc2)C2OC1(C(Cc1ccccc1)Oc1ccccc1)C1OC21 (stereo not given) | 11.2 µM | 23.8 µM | 17.1 µM | 31.2 µM | 0.569 µM | 2.75 µM | 3.79 µM | 13.6 µM | 16.4 µM | 34.1 µM | 1.78 µM | 3.2 µM | 4.1 µM | 16.8 µM | 18.3 µM | 48.2 µM | 2.02 µM | 4.86 µM | 3.23 µM | 13.1 µM
Clc1cccc(Cn2cc(Cc3cn(Cc4cccc(Cl)c4)c4ccccc34)c3ccccc32)c1 | > 100 µM | > 100 µM | > 100 µM | > 100 µM | > 100 µM | > 100 µM | > 100 µM | > 100 µM | 46.5 µM | > 100 µM | > 100 µM | > 100 µM | 47.1 µM | > 100 µM | > 100 µM | > 100 µM | > 100 µM | > 100 µM | > 100 µM | > 100 µM
O=C(/C=C/c1ccccc1O)c1ccccc1 | 15.2 µM | 28.6 µM | 17 µM | 36.1 µM | 1.52 µM | 11.1 µM | 6.02 µM | 21.1 µM | 14.2 µM | 29 µM | 3.14 µM | 12.3 µM | 15.3 µM | 31.1 µM | 31.5 µM | > 100 µM | 14.7 µM | 64.5 µM | 13.1 µM | 25.9 µM
C[C@@]12CCC[C@@](C)(C(=O)O)C1CC[C@]13C=C(CO)[C@](O)(CCC12)C3 (stereo not given in full) | > 100 µM | > 100 µM | > 100 µM | > 100 µM | > 100 µM | > 100 µM | > 100 µM | > 100 µM | > 100 µM | > 100 µM | > 100 µM | > 100 µM | > 100 µM | > 100 µM | > 100 µM | > 100 µM | > 100 µM | > 100 µM | > 100 µM | > 100 µM
Clc1ccc(-c2nc(-c3c[nH]c4ncccc34)cs2)cc1 | > 100 µM | > 100 µM | > 100 µM | > 100 µM | > 100 µM | > 100 µM | > 100 µM | > 100 µM | > 100 µM | > 100 µM | > 100 µM | > 100 µM | > 100 µM | > 100 µM | > 100 µM | > 100 µM | 9.41 µM | > 100 µM | > 100 µM | > 100 µM
COc1cc(-c2nn(C)nc2-c2cc3ccccc3s2)cc(OC)c1OC | 0.0413 µM | 7.63 µM | 0.169 µM | > 100 µM | 0.0488 µM | 1.07 µM | 0.0257 µM | 0.0995 µM | 0.0699 µM | > 100 µM | 0.0354 µM | 0.77 µM | 2.39 µM | > 100 µM | 0.311 µM | > 100 µM | > 100 µM | > 100 µM | 0.0538 µM | > 100 µM
C=C1C(=O)O[C@H]2[C@H]1CC/C(COC(=O)NCc1c[nH]c3ccc(OC)cc13)=C\CC[C@@]1(C)O[C@@H]21 | 13 µM | 25.8 µM | 3.26 µM | 15 µM | 0.255 µM | 1.88 µM | 1.27 µM | 2.87 µM | 3.76 µM | 16.7 µM | 0.695 µM | 2.1 µM | 2.14 µM | 4.9 µM | 12.7 µM | 25.2 µM | 1.89 µM | 4.38 µM | 1.7 µM | 3.69 µM
COc1c(Nc2ncc(Cl)c(N[C@@H]3[C@H]4C=CC(C4)[C@@H]3C(N)=O)n2)ccc2c1CC[C@@H](N1CCOCC1)CC2 | 1.39 µM | 4.79 µM | 4.02 µM | 17.5 µM | 4.86 µM | 20.6 µM | 2.72 µM | 15.7 µM | 4.19 µM | 18.2 µM | 7.06 µM | 24.5 µM | 1.4 µM | 17.8 µM | 3.43 µM | 15.2 µM | 7.78 µM | 25.5 µM | 2.81 µM | 18.8 µM
Nc1nn(C(=O)Nc2ccc(Cc3ccccc3)cc2)c2ccc(Cl)cc12 | 15.9 µM | 52.8 µM | 5.76 µM | > 89.2 µM | 6.57 µM | 44.6 µM | 0.138 µM | > 100 µM | 0.0658 µM | 15.3 µM | 7.14 µM | 21.6 µM | 22.7 µM | > 100 µM | 17.9 µM | 52 µM | 0.0957 µM | 28.8 µM | 0.0397 µM | > 100 µM
O=C(Nc1cccnc1)c1cccs1 | > 100 µM | > 100 µM | 5.6 µM | > 100 µM | 48.1 µM | > 100 µM | 2.43 µM | > 100 µM | 6.6 µM | > 100 µM | 1.19 µM | > 100 µM | 45.4 µM | > 100 µM | 5.57 µM | > 100 µM | > 100 µM | > 100 µM | 28.1 µM | > 100 µM
